Source: patent publication US12509437B2, “Substituted thiophene carboxamides and derivatives thereof as microbicides” (Bayer Aktiengesellschaft, priority 2019, dated 2025)

Assays:
Format in all cases: cell-based
Alternaria alternata = Alternaria alternata in vitro cell test; conditions: 120 h, 5 days incubation, read-out: efficacy (inhibition of fungal growth; no direct activity); for inhibition at 5 ppm: 5 ppm of active ingredient; for inhibition at 20 ppm: 20 ppm of active ingredient
Procedure, shortened: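 A. alternata spores in glucose/peptone/yeast-extract liquid medium were exposed to DMSO-solubilized compound (final DMSO ≤1%). After 5 days incubation, mycelium growth read spectrometrically; inhibition derived from absorbance relative to fungicide-free control wells.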

[1] = tested on: Xanthomonas campestris pv. campestris; assay: Xanthomonas campestris pv. campestris in vitro cell test; conditions: 24 h of incubation, read-out: efficacy (inhibition of bacteria growth; no direct activity); for inhibition at 5 ppm: 5 ppm of active ingredient; for inhibition at 20 ppm: 20 ppm of active ingredient
Procedure, shortened: (§1)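 Bacteria from liquid pre-culture diluted to set OD in LB broth and exposed to compounds dissolved in DMSO (final ≤1%). After 24 h, growth read by absorbance; inhibition derived relative to compound-free control wells.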

[2] = tested on: Pseudomonas syringae pv. tomato; assay: Pseudomonas syringae pv. tomato in vitro cell test; conditions: 20 ppm of active ingredient, 24 h of incubation, read-out: efficacy (inhibition of bacteria growth; no direct activity)
Procedure, shortened: as §1

COC(=O)C(NC(=O)c1sc(Br)c(Br)c1C)C1CC1 (stereo not drawn) [I.032]
≤ 30%: inhibition at 5 ppm (Alternaria alternata) | inhibition at 20 ppm (Alternaria alternata) | inhibition at 5 ppm [1] | inhibition at 20 ppm [2]

CCOC(=O)C1(NC(=O)c2sc(Cl)c(Cl)c2C)CCC1 [I.047]
≤ 30%: inhibition at 5 ppm (Alternaria alternata) | inhibition at 20 ppm (Alternaria alternata) | inhibition at 5 ppm [1] | inhibition at 20 ppm [1] | inhibition at 20 ppm [2]

Cc1c(C(=S)NC2(C(=O)O)CC2)sc(Cl)c1Cl [I.060]
≤ 30%: inhibition at 5 ppm (Alternaria alternata) | inhibition at 20 ppm (Alternaria alternata) | inhibition at 5 ppm [1] | inhibition at 20 ppm [1] | inhibition at 20 ppm [2]

CCOC(=O)C(C#N)NC(=O)c1sc(Br)c(Br)c1C (stereo not drawn) [I.077]
≤ 30%: inhibition at 5 ppm (Alternaria alternata) | inhibition at 20 ppm (Alternaria alternata) | inhibition at 5 ppm [1] | inhibition at 20 ppm [1] | inhibition at 20 ppm [2]

Cc1c(C(=O)NC(C(=O)O)C2CC2)sc(Br)c1Br (stereo not drawn) [I.080, cyclopropyl{[(4,5-dibromo-3-methyl-2-thienyl)carbonyl]amino}acetic acid]
≤ 30%: inhibition at 5 ppm (Alternaria alternata) | inhibition at 20 ppm (Alternaria alternata) | inhibition at 5 ppm [1] | inhibition at 20 ppm [1] | inhibition at 20 ppm [2]

COC(=O)C(NC(=O)c1sc(Cl)c(Cl)c1C)C1CC1 (stereo not drawn) [I.081, methyl cyclopropyl{[(4,5-dichloro-3-methyl-2-thienyl)carbonyl]amino}acetate]
≤ 30%: inhibition at 5 ppm (Alternaria alternata) | inhibition at 20 ppm (Alternaria alternata) | inhibition at 5 ppm [1] | inhibition at 20 ppm [1] | inhibition at 20 ppm [2]

Cc1c(C(=O)NC(C(=O)O)C2CC2)sc(Cl)c1Cl (stereo not drawn) [I.095]
≤ 30%: inhibition at 5 ppm (Alternaria alternata) | inhibition at 20 ppm (Alternaria alternata) | inhibition at 5 ppm [1] | inhibition at 20 ppm [1] | inhibition at 20 ppm [2]

COC(=O)CC[C@H](NC(=O)c1sc(Cl)c(Cl)c1C)C(=O)OC [I.122]
≤ 30%: inhibition at 5 ppm (Alternaria alternata) | inhibition at 20 ppm (Alternaria alternata) | inhibition at 5 ppm [1] | inhibition at 20 ppm [1] | inhibition at 20 ppm [2]
